Measured values as given in PMC10958001, “THOUSAND-GRAIN WEIGHT 6, which is an IAA-glucose hydrolase, preferentially recognizes the structure of the indole ring” (Scientific Reports, 2024).

What was measured:
[1] = molecular target: T1, TGW6 (THOUSAND-GRAIN WEIGHT 6), IAA-glucose hydrolase (Oryza sativa, UniProt Q69U01); test: […] NMR fragment screening (CPMG R2 filter); assay type: binding; conditions: 298 K
T1 construct: gene Os06g0623700; recombinant; N-terminal Trx-(His)6 tag cleaved with thrombin; E. coli Rosetta-gami 2(DE3); purified
T1 sequence (Q69U01 31-350): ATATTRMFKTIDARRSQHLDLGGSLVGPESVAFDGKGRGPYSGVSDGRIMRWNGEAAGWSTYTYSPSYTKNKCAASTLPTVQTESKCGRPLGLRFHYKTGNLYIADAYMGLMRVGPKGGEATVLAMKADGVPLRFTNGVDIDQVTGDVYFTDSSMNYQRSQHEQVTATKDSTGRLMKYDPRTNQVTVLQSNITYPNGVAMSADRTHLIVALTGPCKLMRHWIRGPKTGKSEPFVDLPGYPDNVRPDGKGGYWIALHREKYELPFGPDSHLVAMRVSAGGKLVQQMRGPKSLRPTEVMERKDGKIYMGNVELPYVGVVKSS

[2] = molecular target: T1, TGW6 (THOUSAND-GRAIN WEIGHT 6), IAA-glucose hydrolase; test: thermal shift (UNCLE, intrinsic Trp fluorescence BCM); assay type: binding; conditions: 27.6 μM TGW6, 55.0 μM ligand, 2 mM CaCl2, pH 7.0
[3] = 10 μM TGW6, 50 μM fragment in mixture

SMILES	Tm shift [2]	also measured
O=[N+]([O-])c1ccc(OCC2CCCO2)c(F)c1 (stereo not shown) [CK0-00681, 2-[(2-Fluoro-4-nitrophenoxy)methyl]tetrahydrofuran]		ΔIntensity (%) ([1]; 10 μM TGW6, 50 μM fragment in mixture, not competitive with IAA-Glc, different site implied): − 100.0
O=[N+]([O-])c1c(F)cccc1N1CCC(O)CC1 [CK0-02991, 1-(3-Fluoro-2-nitrophenyl)piperidin-4-ol]		ΔIntensity (%) [1, 3]: − 57.9
O=[N+]([O-])c1ccc(OC2CCOCC2)c(F)c1 [CK0-03011, 4-(2-Fluoro-4-nitrophenoxy)tetrahydro-2H-pyran]		ΔIntensity (%) [1, 3]: − 45.4
O=C(O)Cc1c[nH]c2ccccc12 [IAA, indole-3-acetic acid]	> 3 °C	
C[C@H](NC(=O)Cc1c[nH]c2ccccc12)C(=O)O [IAA-Ala]	~ 10 °C	
O=C(Cc1c[nH]c2ccccc12)O[C@@H]1O[C@H](CO)[C@@H](O)[C@H](O)[C@H]1O [IAA-Glc, 1-O-indole-3-ylacetyl-β-D-glucose]	~ 5 °C	
O=C(O)C(c1c[nH]c2ccc(F)cc12)C(F)(F)F (stereo not shown) [PK0-42071, 3,3,3-Trifluoro-2-(5-fluoro-1H-indol-3-yl)propanoic acid]		ΔIntensity (%) ([1]; 10 μM TGW6, CF3-containing fragment at 17.5 μM in mixture): − 46.0

More lines, main results first:

Tm shift [2]	SMILES	also measured
~ 9 °C	O=C(O)Cc1c[nH]c2c(F)cccc12 [PK0-38511, 2-(7-Fluoro-1H-indol-3-yl)acetic acid]	ΔIntensity (%) ([1]; 10 μM TGW6, 50 μM fragment in mixture, competitive with IAA-Glc): − 50.3
> 3 °C	COC(=O)Cc1c[nH]c2ccccc12 [MeIAA, methyl indole 3-acetate]	
> 3 °C	O=C(O)CCCc1c[nH]c2ccccc12 [IBA, indole 3-butyric acid]	
~ 7 °C	O=C(O)Cc1c[nH]c2cccc(F)c12 [PK0-38501, 2-(4-Fluoro-1H-indol-3-yl)acetic acid]	ΔIntensity (%) [1, 3]: − 46.5
